Data reported in patent publication US10265298B2, “Method of increasing the bioavailability of silybin” (Macau University of Science and Technology, priority 2017, dated 2019).

Tests used:
Caco-2 cells = assay: Glucuronidation of silybin in Caco-2 cells (LC-MS peak area of silybin glucuronides); type: in vitro ADME, human; conditions: silybin 10 μM, test compound 20 μM co-incubation
Procedure: The analysis of silybin and total concentrations of glucuronides and sulfates was performed on an Agilent HP 1100 LC-MS system (Agilent, CA). A Waters ACQUITY UPLC® BEH C18 Column (1.7 μm, 2.1×50 mm, Waters Corp., Ireland) was used for detection with a C18 Security Guard cartridge (4×2.0 mm i.d., Phenomenex, Torrance, Calif.). Silybin A and silybin B were well separated using optimized gradient elution with methanol (mobile phase B) and 0.1% formic acid in water (mobile phase A) as mobile phase at a flow rate of 0.4 ml/min with a run time of 10 minutes. The gradient employed was as follows (time: mobile phase B percentage): 0 min: 25%, 6 minutes: 40%, 6.5 minutes: 25%.
MS parameters including: capillary voltage, −4000 V; nebulizer pressure, 40 pounds per square inch (psi); drying gas, 9 liters per minute (L/min); drying gas temperature, 325° C.; fragment voltage, 35 volts; dwell time, 200 milliseconds (ms); scan mode, selective ion monitoring (SIM) with [M-H]− for silybin (mass-to-charge ratio (m/z) 481), mono-glucuronide (m/z 657), and NG (m/z 271), respectively. LC-MS data were obtained by Agilent ChemStation Software.
Silybin is primarily metabolized to glucuronide (about 55%) and sulfate (about 28%) conjugates in human plasma after oral administration. To examine whether the co-incubation of flavonoids could affect the conjugation of silybin, the peak area of silybin glucuronides was measured by LC-MS (FIG. 6). Identification of glucuronides in the samples was based on their MS in-source fragmentations (m/z 657).

MDR1 (P-gp) = MDR1 (P-gp) (Homo sapiens, UniProt P08183); assay: cell-based
Procedure: (§1) Parental Madin-Darby canine kidney II (MDCKII), multi-drug resistance gene 1-Madin-Darby canine kidney II (MDR1-MDCKII), breast cancer resistance protein-Madin-Darby canine kidney II (BCRP-MDCKII), and multi-drug resistance protein 2-Madin-Darby canine kidney II (MRP2-MDCKII) cells were kindly provided by the Netherlands Cancer Institute (Amsterdam, Netherlands) and frozen at −80° C. The MDCKII cells were cultured at 37° C./5% CO2 in Dulbecco's modified Eagle's medium supplemented with 10% fetal bovine serum, 1% nonessential amino acids, and 2% penicillin-streptomycin. The cells were seeded on transwell inserts (Corning Inc.) at a density of 2.0×10^5 cells/cm^2 and grown for 4-5 days to form confluent monolayers.
(§2) Bidirectional transport assays in human colorectal adenocarcinoma 2 (Caco-2) and Madin-Darby canine kidney II (MDCK II) was carried out by dosing substrates in assay buffer to either the apical chamber (A-to-B) or the basolateral chamber (B-to-A); cells were then incubated at 37° C. with shaking at 50 rotations per minute (rpm), and 100 μl samples were collected at 30, 60, 90, 120 and 180 minutes from the basolateral chamber to study the drug transport of AP to BL, or apical chamber to study the drug transport of BL to AP. Cell monolayers were then washed twice with ice-cold assay buffer and lysed with methanol on ice for 10 minutes. For inhibition studies, Caco-2 or MDCK II cell monolayers were pre-incubated with an inhibitor in both apical and basolateral chambers for 30 minutes, and bidirectional transport of 10 μM silybin was conducted in the absence (control) or presence of the inhibitor in both chambers. […] For fluorescence intensity detection, samples collected from AP or BL side were immediately detected in 96 well black plate by Microplate ultraviolet-visible spectroscopy (UV/VIS) spectrophotometer (TECAN infinite M200 PRO, Männedorf, Switzerland). In all cases, each determination was performed in triplicate.
(§3) The apparent permeability coefficients (Papp) were calculated as Papp=dQ/dt×1/(C“0”A) where dQ/dt (mM/sec) is the rate of permeation of the drug across the cells, C0 (millimolar (mM)) is the donor compartment concentration at time zero and A (cm^2) is the area of the cell monolayer. C0 is obtained from analysis of the dosing solution at the start experiment. Efflux Ratio (ER)=Papp (B to A)/Papp (A to B), while Papp (B−A) is the Papp value measured in the B to A direction, and Papp (A−B) is the Papp value measured in the A to B direction. 1.5 Preparation of Rat Sandwich-Cultured Hepatocytes
(§4) (*, P<0.05;**, P<0.01; ***, P<0.001 vs absence of any inhibitor. n=3).
as §4

MRP2 = MRP2 (Homo sapiens, UniProt Q92887); assay: cell-based; conditions: for efflux ratio of CDCFDA in the presence of inhibitor: dog, 180 min
Procedure: as §1, §2, §3, §4, §4

MRP2, sequence (Q92887 whole entry): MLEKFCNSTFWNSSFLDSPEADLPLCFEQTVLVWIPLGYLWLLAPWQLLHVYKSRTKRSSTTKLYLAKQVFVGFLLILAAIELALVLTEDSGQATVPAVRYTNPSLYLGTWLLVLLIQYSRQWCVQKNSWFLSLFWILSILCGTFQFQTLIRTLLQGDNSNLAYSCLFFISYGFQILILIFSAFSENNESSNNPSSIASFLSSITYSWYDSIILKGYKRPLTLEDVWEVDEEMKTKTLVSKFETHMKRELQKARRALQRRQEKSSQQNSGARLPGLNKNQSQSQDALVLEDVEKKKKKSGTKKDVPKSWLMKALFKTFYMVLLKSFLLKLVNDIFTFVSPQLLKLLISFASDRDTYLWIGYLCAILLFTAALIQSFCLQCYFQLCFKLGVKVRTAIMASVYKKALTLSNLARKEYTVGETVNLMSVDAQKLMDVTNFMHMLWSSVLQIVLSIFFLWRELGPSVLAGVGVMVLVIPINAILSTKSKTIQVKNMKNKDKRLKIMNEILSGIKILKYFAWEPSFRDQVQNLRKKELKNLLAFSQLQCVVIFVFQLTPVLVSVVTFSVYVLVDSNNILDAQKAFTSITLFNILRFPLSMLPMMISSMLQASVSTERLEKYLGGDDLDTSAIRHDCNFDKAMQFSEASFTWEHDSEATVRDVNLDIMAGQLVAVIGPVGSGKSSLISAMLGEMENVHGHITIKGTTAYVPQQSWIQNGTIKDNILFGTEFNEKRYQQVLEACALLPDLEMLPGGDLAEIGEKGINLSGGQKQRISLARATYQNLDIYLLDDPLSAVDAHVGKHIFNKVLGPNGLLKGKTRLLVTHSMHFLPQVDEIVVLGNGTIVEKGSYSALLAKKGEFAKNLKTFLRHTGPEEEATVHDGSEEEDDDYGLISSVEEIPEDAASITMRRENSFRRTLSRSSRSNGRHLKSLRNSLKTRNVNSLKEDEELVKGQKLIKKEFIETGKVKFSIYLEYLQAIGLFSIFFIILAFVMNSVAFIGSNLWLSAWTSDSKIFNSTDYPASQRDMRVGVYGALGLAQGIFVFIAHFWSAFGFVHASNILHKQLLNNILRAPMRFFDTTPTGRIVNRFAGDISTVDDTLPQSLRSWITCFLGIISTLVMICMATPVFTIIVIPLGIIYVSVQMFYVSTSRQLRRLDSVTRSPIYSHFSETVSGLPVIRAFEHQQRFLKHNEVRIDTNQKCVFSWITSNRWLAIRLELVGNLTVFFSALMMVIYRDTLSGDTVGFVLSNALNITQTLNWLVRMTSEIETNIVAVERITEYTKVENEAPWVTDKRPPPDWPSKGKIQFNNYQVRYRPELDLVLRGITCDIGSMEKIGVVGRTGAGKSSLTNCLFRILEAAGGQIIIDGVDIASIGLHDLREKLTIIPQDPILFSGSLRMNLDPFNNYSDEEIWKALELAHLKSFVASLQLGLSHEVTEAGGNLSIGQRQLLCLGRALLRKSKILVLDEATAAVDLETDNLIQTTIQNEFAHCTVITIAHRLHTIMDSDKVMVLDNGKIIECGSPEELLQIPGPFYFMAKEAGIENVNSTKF
MDR1 (P-gp), sequence (P08183 whole entry): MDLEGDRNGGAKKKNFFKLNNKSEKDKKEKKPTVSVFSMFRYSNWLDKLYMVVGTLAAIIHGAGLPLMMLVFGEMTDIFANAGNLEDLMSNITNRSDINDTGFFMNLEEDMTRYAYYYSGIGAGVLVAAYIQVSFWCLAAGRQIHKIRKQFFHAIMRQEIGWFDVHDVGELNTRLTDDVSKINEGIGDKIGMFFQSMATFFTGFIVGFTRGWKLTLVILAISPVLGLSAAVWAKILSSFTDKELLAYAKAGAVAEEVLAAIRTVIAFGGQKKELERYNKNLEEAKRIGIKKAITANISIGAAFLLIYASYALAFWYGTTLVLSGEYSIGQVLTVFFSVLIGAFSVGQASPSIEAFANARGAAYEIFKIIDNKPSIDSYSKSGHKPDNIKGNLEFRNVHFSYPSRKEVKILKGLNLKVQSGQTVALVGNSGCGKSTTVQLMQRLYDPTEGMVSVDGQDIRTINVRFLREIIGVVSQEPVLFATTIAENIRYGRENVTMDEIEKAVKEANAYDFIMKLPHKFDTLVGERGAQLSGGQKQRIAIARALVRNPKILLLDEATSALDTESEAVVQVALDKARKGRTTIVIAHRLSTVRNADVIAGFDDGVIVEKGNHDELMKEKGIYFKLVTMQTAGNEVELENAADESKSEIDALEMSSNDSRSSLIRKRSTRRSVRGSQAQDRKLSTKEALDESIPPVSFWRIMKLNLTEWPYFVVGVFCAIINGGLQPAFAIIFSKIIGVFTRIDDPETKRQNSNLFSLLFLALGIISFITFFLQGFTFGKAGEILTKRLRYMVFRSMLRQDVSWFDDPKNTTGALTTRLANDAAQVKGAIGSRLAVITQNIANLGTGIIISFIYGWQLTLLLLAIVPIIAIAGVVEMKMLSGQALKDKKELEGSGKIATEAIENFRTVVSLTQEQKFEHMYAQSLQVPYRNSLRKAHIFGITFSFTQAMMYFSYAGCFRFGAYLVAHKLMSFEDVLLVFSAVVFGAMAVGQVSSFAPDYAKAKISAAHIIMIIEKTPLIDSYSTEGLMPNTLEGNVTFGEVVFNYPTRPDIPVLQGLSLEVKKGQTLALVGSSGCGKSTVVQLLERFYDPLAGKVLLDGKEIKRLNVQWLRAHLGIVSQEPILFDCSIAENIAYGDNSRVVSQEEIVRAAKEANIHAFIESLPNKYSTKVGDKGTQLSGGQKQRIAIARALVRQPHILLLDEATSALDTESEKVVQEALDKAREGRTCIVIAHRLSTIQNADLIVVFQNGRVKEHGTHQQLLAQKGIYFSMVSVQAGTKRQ

SMILES | effect on glucuronide metabolites / glucuronide conjugation of silybin (Caco-2 cells) | IC50 (MDR1 (P-gp)) [µM] | IC50 (MRP2) [µM] | efflux ratio of CDCFDA in the presence of inhibitor (MRP2)
O=c1cc(-c2ccccc2)oc2cc(O)c(O)c(O)c12 [baicalein] | almost undetected | 20.6 | 21.2 | 1.46
COc1ccc(-c2cc(=O)c3c(OC)c(OC)c(OC)c(OC)c3o2)cc1 [tangeretin] | did not significantly inhibit the conjugation | 6.88 | 8.84 | 1.54
